# PubChem BioAssay (NCI)
#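 GI50 = concentration required for 50% inhibition of growth. TGI marks complete inhibition of growth.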
# Assays:
# Experiment in all cases: growth of human tumour cells (NCI), 384-well format
# UACC-62 melanoma = system: UACC-62 melanoma
# UACC-257 melanoma = system: UACC-257 melanoma
# COLO 205 colon = system: COLO 205 colon
# MCF7 breast = system: MCF7 breast
# SK-OV-3 ovarian = system: SK-OV-3 ovarian
# SK-MEL-28 melanoma = system: SK-MEL-28 melanoma
# SW-620 colon = system: SW-620 colon
# NCI-H460 NSCLC = system: NCI-H460 NSCLC
# A498 renal = system: A498 renal
# U251 glioblastoma = system: U251 glioblastoma
# SNB-19 CNS = system: SNB-19 CNS
# HCT-116 colon = system: HCT-116 colon
# IGROV1 ovarian = system: IGROV1 ovarian
# BT-549 breast = system: BT-549 breast
# HL-60(TB) leukemia = system: HL-60(TB) leukemia
# SNB-75 CNS = system: SNB-75 CNS
# M14 melanoma = system: M14 melanoma
# RXF 393 renal = system: RXF 393 renal
# OVCAR-3 ovarian = system: OVCAR-3 ovarian
# SF-268 CNS = system: SF-268 CNS
# NCI-H226 lung = system: NCI-H226 lung
# CAKI-1 renal = system: CAKI-1 renal
# ACHN renal = system: ACHN renal
# MOLT-4 leukemia = system: MOLT-4 leukemia
# SF-295 CNS = system: SF-295 CNS
# TK-10 renal = system: TK-10 renal
# LOX IMVI melanoma = system: LOX IMVI melanoma
# NCI-H23 lung = system: NCI-H23 lung
# A549 NSCLC = system: A549 NSCLC
# NCI/ADR-RES ovarian = system: NCI/ADR-RES ovarian
# HCT-15 colon = system: HCT-15 colon
# RPMI-8226 leukemia = system: RPMI-8226 leukemia
# NCI-H522 lung = system: NCI-H522 lung
# SR leukemia = system: SR leukemia
# SN12C renal = system: SN12C renal
# DU-145 prostate = system: DU-145 prostate
# OVCAR-8 ovarian = system: OVCAR-8 ovarian
# MDA-MB-468 breast = system: MDA-MB-468 breast
# HS 578T breast = system: HS 578T breast
# 786-0 renal = system: 786-0 renal
# HOP-92 NSCLC = system: HOP-92 NSCLC
# KM12 colon = system: KM12 colon
# T-47D breast = system: T-47D breast
# MDA-MB-435 melanoma = system: MDA-MB-435 melanoma
# NCI-H322M lung = system: NCI-H322M lung
# MDA-MB-231 breast = system: MDA-MB-231 breast
# MALME-3M melanoma = system: MALME-3M melanoma
# OVCAR-5 ovarian = system: OVCAR-5 ovarian
# EKVX NSCLC = system: EKVX NSCLC
# UO-31 renal = system: UO-31 renal
# SK-MEL-5 melanoma = system: SK-MEL-5 melanoma
# PC-3 prostate = system: PC-3 prostate
# SF-539 CNS = system: SF-539 CNS
# OVCAR-4 ovarian = system: OVCAR-4 ovarian
# HOP-62 NSCLC = system: HOP-62 NSCLC
compound,measurement,setting,value
N#CC[C@H](C1CCCC1)n1cc(-c2ncnc3[nH]ccc23)cn1,GI50,UACC-62 melanoma,21.5 µM
same,TGI,UACC-62 melanoma,41.7 µM
same,GI50,UACC-257 melanoma,25.9 µM
same,TGI,UACC-257 melanoma,68.5 µM
same,GI50,COLO 205 colon,24.7 µM
same,TGI,COLO 205 colon,53.1 µM
same,GI50,MCF7 breast,25.9 µM
same,TGI,MCF7 breast,77.7 µM
same,GI50,SK-OV-3 ovarian,21 µM
same,TGI,SK-OV-3 ovarian,45.9 µM
same,GI50,SK-MEL-28 melanoma,23 µM
same,TGI,SK-MEL-28 melanoma,55.7 µM
same,GI50,SW-620 colon,29.7 µM
same,TGI,SW-620 colon,> 100 µM
same,GI50,NCI-H460 NSCLC,16 µM
same,TGI,NCI-H460 NSCLC,46.7 µM
same,GI50,A498 renal,21.7 µM
same,TGI,A498 renal,41.6 µM
same,GI50,U251 glioblastoma,28.4 µM
same,TGI,U251 glioblastoma,71.8 µM
same,GI50,SNB-19 CNS,30.6 µM
same,TGI,SNB-19 CNS,82.7 µM
same,GI50,HCT-116 colon,23.5 µM
same,TGI,HCT-116 colon,63.4 µM
same,GI50,IGROV1 ovarian,22.7 µM
same,TGI,IGROV1 ovarian,84.4 µM
same,GI50,BT-549 breast,19.8 µM
same,TGI,BT-549 breast,34.6 µM
same,GI50,HL-60(TB) leukemia,23.9 µM
same,TGI,HL-60(TB) leukemia,38.8 µM
same,GI50,SNB-75 CNS,18.4 µM
same,TGI,SNB-75 CNS,41.3 µM
same,GI50,M14 melanoma,27.2 µM
same,TGI,M14 melanoma,50.9 µM
same,GI50,RXF 393 renal,12.9 µM
same,TGI,RXF 393 renal,30.4 µM
same,GI50,OVCAR-3 ovarian,25.8 µM
same,TGI,OVCAR-3 ovarian,51.8 µM
same,GI50,SF-268 CNS,16.2 µM
same,TGI,SF-268 CNS,36.6 µM
same,GI50,NCI-H226 lung,5.75 µM
same,TGI,NCI-H226 lung,25 µM
same,GI50,CAKI-1 renal,21.3 µM
same,TGI,CAKI-1 renal,50.5 µM
same,GI50,ACHN renal,21.1 µM
same,TGI,ACHN renal,50.9 µM
same,GI50,MOLT-4 leukemia,18.3 µM
same,TGI,MOLT-4 leukemia,46.1 µM
same,GI50,SF-295 CNS,18.3 µM
same,TGI,SF-295 CNS,37.9 µM
same,GI50,TK-10 renal,29 µM
same,TGI,TK-10 renal,89.6 µM
same,GI50,LOX IMVI melanoma,19.1 µM
same,TGI,LOX IMVI melanoma,35.8 µM
same,GI50,NCI-H23 lung,17.1 µM
same,TGI,NCI-H23 lung,32.8 µM
same,GI50,A549 NSCLC,18.3 µM
same,TGI,A549 NSCLC,52.6 µM
same,GI50,NCI/ADR-RES ovarian,23.4 µM
same,TGI,NCI/ADR-RES ovarian,50.3 µM
same,GI50,HCT-15 colon,26.2 µM
same,TGI,HCT-15 colon,82.1 µM
same,GI50,RPMI-8226 leukemia,19.4 µM
same,TGI,RPMI-8226 leukemia,34.6 µM
same,GI50,NCI-H522 lung,13.6 µM
same,TGI,NCI-H522 lung,29.5 µM
same,GI50,SR leukemia,8.31 µM
same,TGI,SR leukemia,20.6 µM
same,GI50,SN12C renal,18.7 µM
same,TGI,SN12C renal,49.7 µM
same,GI50,DU-145 prostate,16 µM
same,TGI,DU-145 prostate,42.1 µM
same,GI50,OVCAR-8 ovarian,27.6 µM
same,TGI,OVCAR-8 ovarian,75.8 µM
same,GI50,MDA-MB-468 breast,23.2 µM
same,TGI,MDA-MB-468 breast,53.5 µM
same,GI50,HS 578T breast,12.4 µM
same,TGI,HS 578T breast,26 µM
same,GI50,786-0 renal,17.4 µM
same,TGI,786-0 renal,43.9 µM
same,GI50,HOP-92 NSCLC,22.2 µM
same,TGI,HOP-92 NSCLC,56.3 µM
same,GI50,KM12 colon,4.07 µM
same,TGI,KM12 colon,> 100 µM
same,GI50,T-47D breast,19.5 µM
same,TGI,T-47D breast,63.9 µM
same,GI50,MDA-MB-435 melanoma,26.6 µM
same,TGI,MDA-MB-435 melanoma,66.5 µM
same,GI50,NCI-H322M lung,26.3 µM
same,TGI,NCI-H322M lung,58.7 µM
same,GI50,MDA-MB-231 breast,16.4 µM
same,TGI,MDA-MB-231 breast,40.3 µM
same,GI50,MALME-3M melanoma,19 µM
same,TGI,MALME-3M melanoma,34.7 µM
same,GI50,OVCAR-5 ovarian,23.5 µM
same,TGI,OVCAR-5 ovarian,48.7 µM
same,GI50,EKVX NSCLC,20.9 µM
same,TGI,EKVX NSCLC,66 µM
same,GI50,UO-31 renal,18.1 µM
same,TGI,UO-31 renal,47.9 µM
same,GI50,SK-MEL-5 melanoma,18.2 µM
same,TGI,SK-MEL-5 melanoma,33.1 µM
same,GI50,PC-3 prostate,25.7 µM
same,TGI,PC-3 prostate,58.1 µM
same,GI50,SF-539 CNS,19.7 µM
same,TGI,SF-539 CNS,42 µM
same,GI50,OVCAR-4 ovarian,29 µM
same,TGI,OVCAR-4 ovarian,51.2 µM
same,GI50,HOP-62 NSCLC,18.7 µM
same,TGI,HOP-62 NSCLC,37.1 µM
